Data taken from article PMC10052652 (Molecules, 2023).
Where two headings read alike, the source gives them in different places.

Tests used:
[1] = DPPH radical scavenging assay; details: for DPPH Assay %: at 100 µM
[2] = ABTS radical cation scavenging assay; details: for ABTS Assay %: at 100 µM
xanthine oxidase (XOD) = xanthine oxidase (XOD) (Homo sapiens, UniProt P47989); assay: biochemical
Method: Anti-xanthine oxidase activity was assayed spectrophotometrically under aerobic conditions. First, 50 µL (50 µg/mL) of samples were added to 60 µL of phosphate buffer (pH 7.5) and 30 µL of xanthine oxidase enzyme solution (0.01 units/mL in phosphate buffer; pH 7.5). After pre-incubation at 25 °C for 15 min, the reaction was initiated by the addition of 60 µL of xanthine substrate solution (prepared in the same buffer). The assay mixture was incubated at 25 °C for 5 min. […] The assay was performed in triplicate. […] Tests were carried out in triplicate.

OVCAR-3 cells = assay: Cytotoxic activity, MTT assay, OVCAR-3; type: cell-based; details: Homo sapiens, OVCAR-3, 72 h, read-out: IC50 OVCAR-3
Method: (§1) The cancer cell lines used in this study were HCT116 (colorectal carcinoma), IGROV1 (ovarian cancer), OVCAR3 (ovarian cancer), and MCF7 (mammary gland/breast cancer). […] Cell lines were maintained in culture and were incubated at 37 °C in an incubator with 5% CO2 in a humidified atmosphere. All tests were established at 80% of confluence, and viability was estimated with a trypan blue exclusion assay.
The cytotoxic activities of molecules against cancer cell lines were evaluated using an MTT assay. The MTT colorimetric assay was performed using 96-well plates. Cells were seeded in a 96-well plate, at a concentration of 10 × 10^3 cells/well for HCT116 and 12 × 10^3 cells/well for MCF7, IGROV1, and OVAR. Adherent cells were dispatched and incubated at 37 °C overnight in a 5% CO2-enriched atmosphere. […] After that, the medium was removed, and cells were treated with 50 µL of 3-(4,5-dimethylthazolk-2-yl)-2,5-diphenyl tetrazolium bromide (MTT) solution (3 mg/mL in PBS) at 37 °C for 20 to 40 min. To dissolve the […], we added 80 µL of 100% DMSO. Optical density was measured at 540 nm. All tests were established in triplicate. […]

SKOV-3 cells = assay: Cytotoxic activity, MTT assay, SKOV-3; type: cell-based, human
[3] = target: acetylcholinesterase (AChE) (Homo sapiens, UniProt P22303); type: biochemical; details: at 100 µM
Chain of acetylcholinesterase (AChE) (P22303 32-614, species assumed): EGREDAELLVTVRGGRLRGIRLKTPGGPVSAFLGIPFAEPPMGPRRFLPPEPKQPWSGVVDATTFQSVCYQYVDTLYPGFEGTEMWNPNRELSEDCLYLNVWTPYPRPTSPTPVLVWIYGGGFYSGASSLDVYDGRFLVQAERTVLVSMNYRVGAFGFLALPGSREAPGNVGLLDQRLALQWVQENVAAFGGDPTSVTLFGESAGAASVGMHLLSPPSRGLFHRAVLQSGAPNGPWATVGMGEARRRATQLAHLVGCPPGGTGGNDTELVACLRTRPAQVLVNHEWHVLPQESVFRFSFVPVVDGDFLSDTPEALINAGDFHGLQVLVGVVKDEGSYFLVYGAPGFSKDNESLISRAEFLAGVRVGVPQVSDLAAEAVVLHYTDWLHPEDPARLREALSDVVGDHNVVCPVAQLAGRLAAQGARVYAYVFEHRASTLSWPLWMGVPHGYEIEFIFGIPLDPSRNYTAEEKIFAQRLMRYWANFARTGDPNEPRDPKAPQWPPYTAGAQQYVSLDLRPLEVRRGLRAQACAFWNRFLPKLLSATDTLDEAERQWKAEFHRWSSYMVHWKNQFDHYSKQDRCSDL

α-amylase = target: T1, α-amylase (Homo sapiens, UniProt P04746); assay: Anti-α-amylase activity (starch/DNS); details: for Anti α-Amylase %: at 100 µM
T1 sequence (P04746 16-511): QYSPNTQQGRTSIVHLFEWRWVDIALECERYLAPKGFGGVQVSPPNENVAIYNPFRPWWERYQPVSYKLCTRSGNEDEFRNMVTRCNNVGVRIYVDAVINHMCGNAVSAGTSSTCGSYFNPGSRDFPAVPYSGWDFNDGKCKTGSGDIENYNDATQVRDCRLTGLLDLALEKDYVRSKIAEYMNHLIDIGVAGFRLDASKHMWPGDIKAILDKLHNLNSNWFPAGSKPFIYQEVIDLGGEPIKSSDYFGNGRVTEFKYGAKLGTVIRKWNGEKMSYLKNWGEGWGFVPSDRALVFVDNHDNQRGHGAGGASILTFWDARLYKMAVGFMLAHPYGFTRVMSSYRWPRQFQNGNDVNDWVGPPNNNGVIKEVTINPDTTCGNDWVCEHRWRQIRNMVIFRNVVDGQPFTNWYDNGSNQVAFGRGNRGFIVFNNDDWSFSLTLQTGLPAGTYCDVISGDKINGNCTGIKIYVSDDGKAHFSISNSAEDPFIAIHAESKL
Method: The α-amylase inhibitory activity (%) value was defined as the percentage decrease in the maltose production rate over the control. […] After 15 min, this mixture was removed from the water bath and diluted with 900 µL of distilled water. The anti-α-amylase activity was determined by measuring the absorbance at 540 nm. Blank incubations were determined as the absorbance produced by samples where the enzyme was replaced with a buffer solution. […] The IC50 values were calculated from the mean values of the percentage of α--amylase inhibition data, determined in triplicate.

IGROV-1 cells = assay: Cytotoxic activity, MTT assay, IGROV-1; details: for Cytotoxic activity against IGROV-1 (in words): at 100 µM; for IC50: Homo sapiens, IGROV-1, read-out: IC50 IGROV-1
Method: as §1
The cytotoxic activities of molecules against cancer cell lines were evaluated using an MTT assay. The MTT colorimetric assay was performed using 96-well plates. Cells were seeded in a 96-well plate, at a concentration of 10 × 10^3 cells/well for HCT116 and 12 × 10^3 cells/well for MCF7, IGROV1, and OVAR. Adherent cells were dispatched and incubated at 37 °C overnight in a 5% CO2-enriched atmosphere. Cells in the exponential growth phase were incubated at 37 °C for 72 h, with each tested sample at 50 µg/mL. After that, the medium was removed, and cells were treated with 50 µL of 3-(4,5-dimethylthazolk-2-yl)-2,5-diphenyl tetrazolium bromide (MTT) solution (3 mg/mL in PBS) at 37 °C for 20 to 40 min. To dissolve the […], we added 80 µL of 100% DMSO. Optical density was measured at 540 nm. All tests were established in triplicate. The anti-cancer effect of samples was estimated in terms of growth inhibition percentage.

[4] = Homo sapiens, SK-OV-3, 72 h, read-out: IC50 SKOV-3, MTT, 72 h

Chain of xanthine oxidase (XOD) (P47989 whole entry, species assumed): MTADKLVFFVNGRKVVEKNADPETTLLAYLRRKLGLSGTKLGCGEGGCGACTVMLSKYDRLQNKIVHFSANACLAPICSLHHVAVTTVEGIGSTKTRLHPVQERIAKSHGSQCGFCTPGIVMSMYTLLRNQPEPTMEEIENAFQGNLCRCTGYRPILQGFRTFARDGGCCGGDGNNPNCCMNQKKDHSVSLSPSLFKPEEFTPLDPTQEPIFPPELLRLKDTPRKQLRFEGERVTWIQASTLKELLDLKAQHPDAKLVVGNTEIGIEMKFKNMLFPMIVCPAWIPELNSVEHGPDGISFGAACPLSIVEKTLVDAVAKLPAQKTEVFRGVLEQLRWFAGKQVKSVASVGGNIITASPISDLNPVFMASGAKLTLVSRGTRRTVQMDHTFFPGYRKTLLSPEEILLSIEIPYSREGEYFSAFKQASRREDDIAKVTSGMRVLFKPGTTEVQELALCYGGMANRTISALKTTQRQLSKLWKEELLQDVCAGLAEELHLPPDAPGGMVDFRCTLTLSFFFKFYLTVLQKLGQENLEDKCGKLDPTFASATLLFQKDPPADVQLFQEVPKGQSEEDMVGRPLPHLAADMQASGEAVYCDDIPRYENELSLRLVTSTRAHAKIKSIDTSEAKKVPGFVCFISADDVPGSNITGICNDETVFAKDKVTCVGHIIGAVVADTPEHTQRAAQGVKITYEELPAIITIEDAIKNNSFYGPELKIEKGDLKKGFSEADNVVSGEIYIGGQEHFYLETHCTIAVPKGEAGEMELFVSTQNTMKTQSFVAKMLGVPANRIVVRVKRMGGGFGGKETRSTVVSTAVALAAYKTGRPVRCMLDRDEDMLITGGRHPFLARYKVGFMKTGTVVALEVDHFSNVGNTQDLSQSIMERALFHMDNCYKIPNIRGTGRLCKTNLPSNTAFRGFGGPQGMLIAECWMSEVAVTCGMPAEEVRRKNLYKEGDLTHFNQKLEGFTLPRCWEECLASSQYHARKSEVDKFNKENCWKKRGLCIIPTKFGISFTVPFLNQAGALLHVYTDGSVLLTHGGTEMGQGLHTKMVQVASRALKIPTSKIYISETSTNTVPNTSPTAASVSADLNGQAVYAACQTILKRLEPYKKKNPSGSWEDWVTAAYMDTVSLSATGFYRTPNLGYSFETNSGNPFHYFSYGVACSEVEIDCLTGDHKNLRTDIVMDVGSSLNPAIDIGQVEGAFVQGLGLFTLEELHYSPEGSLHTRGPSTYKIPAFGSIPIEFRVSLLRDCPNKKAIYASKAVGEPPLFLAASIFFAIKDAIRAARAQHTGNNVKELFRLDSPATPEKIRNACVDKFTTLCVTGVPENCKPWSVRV

With `O=c1cc(-c2ccccc2)oc2cc(O)c(O)c(O)c12` [Molecule M7, 5,6,7-trihydroxyflavone] the IC50 [1] was 5.2 ± 0.2 µM, the “DPPH Assay %” value [1] was 96.4 ± 0.1% and the IC50 [2] was 6.3 ± 0.1 µM. For the same compound, the IC50 (xanthine oxidase (XOD); read-out: Anti XOD IC50) was over 100 µM, the IC50 (OVCAR-3 cells) was over 50 µM and the IC50 (SKOV-3 cells; [4]) was 15.6 ± 0.1 µM. The “Anti ACHE %” value [3] was 62.0 ± 1.9%, the IC50 (α-amylase) was 3.4 ± 0.1 µM and the “Anti α-Amylase %” value (α-amylase) was 96.9 ± 1.7%.

In the case of `O=c1cc(-c2cc(O)cc(O)c2)oc2ccccc12` [Molecule M8, 3′,5′-dihydroxyflavone], the IC50 [1] is reported as over 100 µM, the “DPPH Assay %” value [1] is reported as 20.3 ± 4.1% and the IC50 [2] is reported as 7.3 ± 0.1 µM. It also gave an IC50 (xanthine oxidase (XOD); read-out: Anti XOD IC50) of 2.3 ± 0.1 µM, an IC50 (OVCAR-3 cells) of over 50 µM and an IC50 (SKOV-3 cells; [4]) of over 50 µM. For the same compound, the “Cytotoxic activity against IGROV-1 (in words)” value (shortened to “Cytotoxic activity”) (IGROV-1 cells) was “most active”, the “Anti ACHE %” value [3] was 49.3 ± 2.2% and the IC50 (α-amylase) was 14.9 ± 0.3 µM. The “Anti α-Amylase %” value (α-amylase) was 104.8 ± 3.5%.

`COc1ccc(-c2oc3c(CC=C(C)C)c(O[C@@H]4O[C@H](CO)[C@@H](O)[C@H](O)[C@H]4O)cc(O)c3c(=O)c2O[C@@H]2O[C@@H](C)[C@H](O)[C@@H](O)[C@H]2O)cc1` [Molecule M2, Icariin] showed an IC50 [1] of over 100 µM, an IC50 [2] of 20.1 ± 0.1 µM and an IC50 (xanthine oxidase (XOD); read-out: Anti XOD IC50) of over 100 µM. For the same compound, the IC50 (OVCAR-3 cells) was over 50 µM, the IC50 (SKOV-3 cells; [4]) was over 50 µM and the IC50 (IGROV-1 cells) was over 100 µM. The “Cytotoxic activity” value (IGROV-1 cells) was “not active”, the “Anti ACHE %” value [3] was 19.3 ± 0.3% and the IC50 (α-amylase) was 14.1 ± 2.1 µM. The “Anti α-Amylase %” value (α-amylase) was 58.1 ± 2.2%.

For `O=c1cc(-c2cccc(O)c2)oc2ccc3ccccc3c12` [Molecule M9, 3′-hydroxy-b-naphthoflavone], the IC50 [1] was over 100 µM, the IC50 [2] was over 100 µM and the IC50 (xanthine oxidase (XOD); read-out: Anti XOD IC50) was over 100 µM. For the same compound, the IC50 (OVCAR-3 cells) was over 50 µM, the IC50 (SKOV-3 cells; [4]) was over 50 µM and the IC50 (IGROV-1 cells) was over 100 µM. For the same compound, the “Cytotoxic activity” value (IGROV-1 cells) was “not active”, the “Anti ACHE %” value [3] was 47.9 ± 4.0% and the IC50 (α-amylase) was 2 ± 0.2 µM. For the same compound, the “Anti α-Amylase %” value (α-amylase) was 86.6 ± 2.3%.

`O=c1cc(-c2ccccc2)oc2ccc(O)cc12` [Molecule M3, 6-hydroxyflavone] showed an IC50 [1] of over 100 µM, an IC50 [2] of 24 ± 0.1 µM and an IC50 (xanthine oxidase (XOD); read-out: Anti XOD IC50) of over 100 µM. For the same compound, the IC50 (OVCAR-3 cells) was 44.7 ± 1.2 µM, the IC50 (SKOV-3 cells; [4]) was over 100 µM and the IC50 (SKOV-3 cells; read-out: IC50 SKOV-3, MTT, 72 h) was over 50 µM. The “Cytotoxic activity” value (IGROV-1 cells) was “most active”, the IC50 (α-amylase) was 10.9 ± 0.1 µM and the “Anti α-Amylase %” value (α-amylase) was 90.3 ± 3.2%.

For `O=c1cc(-c2ccccc2)oc2cc(O)cc(O)c12` [Molecule M1, 5,7-dihydroxyflavone], the IC50 [1] was over 100 µM, the “DPPH Assay %” value [1] was “not active” and the IC50 [2] was over 50 µM. The IC50 (xanthine oxidase (XOD)) was over 100 µM, the IC50 (OVCAR-3 cells) was over 50 µM and the IC50 (SKOV-3 cells; [4]) was over 50 µM. For the same compound, the “Cytotoxic activity” value (IGROV-1 cells) was “most active”, the “Anti ACHE %” value [3] was 45.8 ± 1.3% and the IC50 (α-amylase) was 36.6 ± 0.2 µM. For the same compound, the “Anti α-Amylase %” value (α-amylase) was 59.7 ± 2.0%.

In the case of `O=c1cc(-c2ccccc2)oc2cc(O)ccc12` [Molecule M5, 7-hydroxyflavone], the IC50 [1] is reported as over 100 µM, the IC50 [2] is reported as over 100 µM and the “ABTS Assay %” value [2] is reported as 5.9 ± 0.4%. The IC50 (xanthine oxidase (XOD); read-out: Anti XOD IC50) was over 100 µM, the IC50 (OVCAR-3 cells) was over 50 µM and the IC50 (SKOV-3 cells; [4]) was over 50 µM. The “Cytotoxic activity” value (IGROV-1 cells) was “most active”, the IC50 (α-amylase) was 1.2 ± 0.1 µM and the “Anti α-Amylase %” value (α-amylase) was 90.3 ± 3.2%.

With `O=c1cc(-c2ccccc2)oc2cccc(O)c12` [Molecule M4, 5-hydroxyflavone] the IC50 [1] was over 100 µM, the IC50 [2] was over 100 µM and the “ABTS Assay %” value [2] was 16.0 ± 1.5%. For the same compound, the IC50 (xanthine oxidase (XOD)) was over 100 µM, the IC50 (OVCAR-3 cells) was over 50 µM and the IC50 (SKOV-3 cells; [4]) was over 50 µM. For the same compound, the IC50 (α-amylase) was 37.9 ± 0.8 µM and the “Anti α-Amylase %” value (α-amylase) was 58.4 ± 1.4%.

`O=c1cc(-c2cccc(O)c2)oc2cc(O)ccc12` [Molecule M13, 7,3′-dihydroxyflavone] showed an IC50 [1] of over 100 µM, an IC50 [2] of 24.5 ± 0.1 µM and an IC50 (xanthine oxidase (XOD); read-out: Anti XOD IC50) of 0.9 ± 0.2 µM. For the same compound, the IC50 (OVCAR-3 cells) was over 50 µM, the IC50 (SKOV-3 cells; [4]) was 42.1 ± 0.7 µM and the “Cytotoxic activity” value (IGROV-1 cells) was “most active”. The “Anti ACHE %” value [3] was 63.9 ± 3.3%, the IC50 (α-amylase) was 1.4 ± 0.1 µM and the “Anti α-Amylase %” value (α-amylase) was 91.7 ± 4.9%.

With `COc1cc(-c2cc(=O)c3ccc4c(O)cccc4c3o2)cc(OC)c1OC` [Molecule M18, 7-hydroxy-3′,4′,5′-trimethoxy-α-naphthoflavone] the IC50 [1] was over 100 µM, the “DPPH Assay %” value [1] was 40.8 ± 0.6% and the IC50 [2] was over 50 µM. The IC50 (xanthine oxidase (XOD); read-out: Anti XOD IC50) was over 100 µM, the IC50 (OVCAR-3 cells) was over 50 µM and the IC50 (SKOV-3 cells; [4]) was 37.3 ± 1 µM. The IC50 (IGROV-1 cells) was over 100 µM, the “Cytotoxic activity” value (IGROV-1 cells) was “not active” and the “Anti ACHE %” value [3] was 43.3 ± 1.8%. For the same compound, the IC50 (α-amylase) was over 100 µM.
